# Assay results taken from ChEMBL document CHEMBL5042519, “Design and synthesis of marine sesterterpene analogues as novel estrogen receptor α degraders for breast cancer treatment” (Eur J Med Chem, 2022).
# Calls of active or inactive are those of the source. No cut-off for these calls is given here.
# What was measured:
# MCF7 [1] = assay: Induction of apoptosis in human MCF7 cells assessed as increase in cleaved caspase 9 level at 0.5 to 3 uM and measured after 24 hrs Western blot analysis relative to control; type: functional, cell-based; conditions: dose 0.5-3 µM
# MCF7 [2] = assay: Effect on cell morphology in human MCF7 cells assessed as appearance of apoptotic bodies at 0.5 to 2 uM measured after 24 hrs by Hoechst 33342 staining based fluorescence microscopy; type: functional; conditions: dose 0.5-2 µM
# MCF7 [3] = assay: Cell cycle arrest in human MCF7 cells assessed as accumulation at G1 phase at 1 uM measured after 24 hrs by propidium iodide staining based flow cytometry (reference value: 73.45 %); type: functional
# MCF7 [4] = assay: Induction of mitochondrial membrane potential loss in human MCF7 cells measured after 24 hrs by JC-1 staining based flow cytometry; type: functional, cell-based
# MCF7 [5] = assay: Antiproliferative activity against human MCF7 cells assessed as reduction in cell viability after 48 hrs by MTT assay; type: functional, cell-based; conditions: MCF7, 48 h
# MCF7 [6] = assay: Induction of ROS generation in human MCF7 cells assessed as increase in intracellular ROS level measured after 24 hrs preincubated with NAC by DCFH-DA staining based flow cytometry method; type: functional, cell-based
# [7] = molecular target: T1, Progesterone receptor (Homo sapiens) (UniProt P06401); assay: Induction of progesterone receptor degradation in human MCF7 cells assessed as decrease in PR level at 1 uM incubated for 24 hrs by Western blot analysis; type: cell-based
# T1 sequence (whole entry): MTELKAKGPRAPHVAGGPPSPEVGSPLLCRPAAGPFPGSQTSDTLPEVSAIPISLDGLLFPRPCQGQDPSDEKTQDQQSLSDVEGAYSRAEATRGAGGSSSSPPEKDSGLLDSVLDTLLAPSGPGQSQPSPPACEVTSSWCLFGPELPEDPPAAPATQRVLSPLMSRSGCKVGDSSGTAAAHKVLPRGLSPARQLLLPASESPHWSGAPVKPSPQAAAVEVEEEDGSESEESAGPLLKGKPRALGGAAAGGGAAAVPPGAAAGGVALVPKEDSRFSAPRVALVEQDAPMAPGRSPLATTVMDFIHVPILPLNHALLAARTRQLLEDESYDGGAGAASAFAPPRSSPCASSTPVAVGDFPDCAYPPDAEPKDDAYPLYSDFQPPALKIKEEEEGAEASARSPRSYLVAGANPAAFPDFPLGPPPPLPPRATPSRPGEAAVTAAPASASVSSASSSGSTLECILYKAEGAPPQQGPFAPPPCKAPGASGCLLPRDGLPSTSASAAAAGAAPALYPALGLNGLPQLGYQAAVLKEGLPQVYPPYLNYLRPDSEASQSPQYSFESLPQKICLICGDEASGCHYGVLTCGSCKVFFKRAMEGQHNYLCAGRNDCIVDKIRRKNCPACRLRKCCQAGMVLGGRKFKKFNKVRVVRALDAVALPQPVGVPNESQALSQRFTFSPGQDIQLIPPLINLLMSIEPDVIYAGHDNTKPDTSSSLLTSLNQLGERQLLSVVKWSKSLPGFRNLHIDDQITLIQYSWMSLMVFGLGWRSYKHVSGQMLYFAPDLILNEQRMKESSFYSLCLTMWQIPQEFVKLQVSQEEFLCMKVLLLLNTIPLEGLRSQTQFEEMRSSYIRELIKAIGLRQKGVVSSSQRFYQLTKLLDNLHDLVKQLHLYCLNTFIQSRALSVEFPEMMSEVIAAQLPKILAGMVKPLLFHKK
# MCF7 [8] = assay: Induction of mitochondrial membrane potential loss in human MCF7 cells at 2 uM measured after 24 hrs by JC-1 staining based flow cytometry; type: functional, cell-based
# MCF7 [9] = assay: Induction of apoptosis in human MCF7 cells assessed as increase in Bax protein level at 0.5 to 3 uM and measured after 24 hrs Western blot analysis relative to control; type: functional, cell-based; conditions: dose 0.5-3 µM
# MCF7 [10] = assay: Inhibition of colony formation in human MCF7 cells at 0.5 uM measured after 9 days by crystal violet staining based assay relative to control; type: functional, cell-based; conditions: time 9.0 day
compound,measurement,setting,value
CC1=CC(=O)[C@H]2/C(C=O)=C\C[C@H]3[C@@H]([C@@H](C)/C=C\C=C/C(=O)OCCOCCOCCOC(=O)CC45CC6CC(CC(C6)C4)C5)CC[C@]3(C)C[C@H]12,Activity,MCF7 [1],Dose-Dependent Effect
same,Activity,MCF7 [2],Active
same,Activity,MCF7 [3],78.07%
same,Activity,MCF7 [4],Active
same,IC50,MCF7 [5],410 nM
same,Activity,MCF7 [6],inactive
same,Activity,[7],inactive
same,Activity,MCF7 [8],Active
same,Activity,MCF7 [9],Active
same,inhibition,MCF7 [10],Active
